According to patent publication US9296762B2, “Complexing agents and corresponding lanthanide complexes” (CISBIO BIOASSAYS, priority 2011, dated 2016):

Tests used:
[1] = Photophysical properties of symmetrical europium TACN complexes 81; type: physicochemical; settings: symmetrical europium TACN complex 81 made of three identical chromophores
Procedure: For certain chromophores, europium complexes according to the invention in which the three chromophores are identical (symmetrical complexes) were prepared using the protocol described in scheme 14, with a TACN macrocycle (the synthetic yields for the intermediate compounds 79, 80 and 81 of scheme 14 were reported in table 2). The photophysical properties of these europium complexes were determined and also reported in this table.

[2] = UV spectra of the chromophores, maximum absorption wavelength; type: physicochemical; settings: UV spectrum of chromophore 78, carboxylate function protected in ester form
Procedure: Several compounds according to the invention were prepared and their photophysical properties, in particular the wavelengths corresponding to their maximum absorption peaks (λmax), were determined. The structures of these compounds and the results obtained are described in table 2.
The chromophores (similar to compound 78, carboxylate function protected in ester form) were synthesized according to the protocol described in scheme 13, using one of the two approaches “A” or “B” as described in this scheme (including that for the chromophores comprising naphthyl, thiolanyl, imidazolyl and anthracenyl rings or heterocycles). For each chromophore, the UV spectra were recorded and the maximum absorption wavelengths (λmax) were determined and reported in table 2.

| SMILES | Complex 81 Quantic yield (%) [1] | Complex 81 λmax (nm) [1] | Chromophore 78 λmax (nm) [2] |
| --- | --- | --- | --- |
| COC(=O)c1cc(C#Cc2cncn2C)cc(CO)n1 | 54% | 333 nm | 315 nm |
| COC(=O)c1cc(C#Cc2ccc(OC)cc2OC)cc(CO)n1 | – | – | 319 nm |
| COC(=O)c1cc(C#Cc2ccccc2OC)cc(CO)n1 | 46% | 336 nm | 323 nm |
| COC(=O)c1cc(C#Cc2ccc(NC(C)=O)cc2C)cc(CO)n1 | – | – | 322 nm |
| COC(=O)c1cc(C#Cc2c3ccccc3cc3ccccc23)cc(CO)n1 | – | – | 326 nm |
| COC(=O)c1cc(C#Cc2ccc(OC)cc2C)cc(CO)n1 | 76% | 343 nm | 326 nm |
| COC(=O)c1cc(C#Cc2ccsc2)cc(CO)n1 | 52% | 323 nm | 326 nm |
| COC(=O)c1cc(C#Cc2ccc(NC(=O)c3cc(OC)c(OC)c(OC)c3)cc2)cc(CO)n1 | – | – | 324 nm |
| COC(=O)c1cc(C#Cc2ccc(OCC(=O)OC(C)(C)C)cc2)cc(CO)n1 | – | – | 318 nm |
| COC(=O)c1cc(C#Cc2cc(OC)c(C)c(OC)c2)cc(CO)n1 | 11% | 336 nm | 319 nm |
| COC(=O)c1cc(C#Cc2ccc(NC(=O)OC(C)(C)C)cc2)cc(CO)n1 | – | – | 326 nm |

Continued, values first:

| Complex 81 Quantic yield (%) [1] | Complex 81 λmax (nm) [1] | Chromophore 78 λmax (nm) [2] | SMILES |
| --- | --- | --- | --- |
| – | – | 291 nm | COC(=O)c1cc(C#Cc2ccccc2)cc(CO)n1 [reference compound] |
| – | – | 323 nm | COC(=O)c1cc(C#Cc2ccc(NC(=O)c3ccccc3)cc2)cc(CO)n1 |
| 52% | 333 nm | 320 nm | COC(=O)c1cc(C#Cc2ccc(OC)cc2)cc(CO)n1 |
| – | – | 315 nm | COC(=O)c1cc(C#Cc2ccc(Oc3ccccc3)cc2)cc(CO)n1 |
| – | – | 335 nm | COC(=O)c1cc(C#Cc2ccc3cc(OC)ccc3c2)cc(CO)n1 |
| – | – | 324 nm | COC(=O)c1cc(C#Cc2ccc(O)cc2)cc(CO)n1 |
| – | – | 332 nm | COC(=O)c1cc(C#Cc2ccc(SC)cc2)cc(CO)n1 |
| – | – | 329 nm | COC(=O)c1cc(C#Cc2cccc3ccccc23)cc(CO)n1 |
| – | – | 318 nm | COC(=O)c1cc(C#Cc2ccc(-c3ccccc3)cc2)cc(CO)n1 |
